# Source: patent US20220296616A1, “SHP1 AND SHP2 INHIBITORS AND THEIR METHODS OF USE” (Tiaki Therapeutics Inc., priority 2019, published 2022)
# What was measured:
# [1] = test system: matrix remodeling genes (mmp9, mmp16, mmp12, mmp2, mmp14); experiment: Expression of matrix remodeling genes in organotypic cortical brain slice cultures; type: cell-based, mice
# Procedure: (§1) The treatment of organotypic cortical brain slice cultures from adult mice with Compound A for 48 h was associated with reductions in expression of matrix remodeling genes (mmp9, mmp16, mmp12; n=3-9, see FIG. 1A showing results of dosing of Compound A at 5 nM, 50 nM, 500 nM, and 5 μM) and total MMP12 protein (n=3-6, see FIG. 1B showing results of dosing of Compound A at 5 nM, 50 nM, 500 nM, and 5 μM).
# (§2) The treatment of organotypic cortical brain slice cultures from adult mice with Compound B for 48 h was associated with reductions in expression of cytokine genes (egfr, i16ra, csf1r, illr1, plekho2; n=3, see FIG. 3A showing results of dosing of Compound B at 2 μM, and 20 μM) and matrix remodeling genes (mmp12, mmp2, mmp16, mmp14; n=3, see FIG. 3B showing results of dosing of Compound B at 2 μM, and 20 μM).
# (§3) The treatment of organotypic brain mice cultures from adult mice with Compound C for 72 h was associated with reductions in expression of cytokine genes (egfr, i16ra, csf1r, plekho2; n=2, See FIG. 5A showing results of dosing of Compound C at 0.1 μM, 0.3 μM, and 10 μM), matrix remodeling genes (mmp12, mmp16; n=2, See FIG. 5B for results of dosing of compound C at 0.1 μM, 0.3 μM, and 10 μM), and astrocyte genes (egfr, ai464131, gdpd2, adh1l1; n=2, See FIG. 5C for results of dosing of compound C at 0.1 μM, 0.3 μM, and 10 μM), and increases in expression of neuronal marker genes (tbr1, dlx1, slc17a6, islr2; n=2, See FIG. 5D for results of dosing of compound C at 0.1 μM, 0.3 μM, and 10 μM).
# cytokine genes = experiment: Expression of cytokine genes in organotypic cortical slice cultures; type: cell-based, mice
# Procedure: (§4) The treatment of organotypic cortical slice cultures with Compound A for 48 h was associated with reductions in expression of cytokine genes (cx3cl1, tgfbr2, i14ra, tgfb1, tnfrsf10b, csf1r, egfr, fit1, flt4, ccl12; n=3-9, see FIG. 2A showing results of dosing of Compound A at 5 nM, 50 nM, 500 nM, and 5 μM) and pro-inflammatory cytokines like IL-33 (n=3-6, see FIG. 2B showing results of dosing of Compound A at 50 nM, 500 nM, and 5 μM).
# as §2, §3
# astrocyte marker genes = experiment: Expression of astrocyte marker genes in organotypic cortical brain slice cultures; type: cell-based, mice
# Procedure: (§5) The treatment of organotypic cortical brain slice cultures from adult mice with Compound B for 48 h was associated with reductions in expression of astrocyte marker genes (egfr, AI464131, Itga7, Gdpd2, Sox9, Aldh1l1, Entpd2; n=3, see FIG. 4A showing results of dosing of Compound B at 2 μM, and 20 μM) and increases in expression of neuronal marker genes (tbr1, Dlx1, Slc17a6, Islr2; n=3, see FIG. 4B showing results of dosing of Compound B at 2 μM, and 20 μM).
# as §3
# neuronal marker genes = experiment: Expression of neuronal marker genes in organotypic cortical brain slice cultures; type: cell-based, mice
# Procedure: as §5, §3
# MMP12 protein = experiment: Total MMP12 protein in organotypic cortical brain slice cultures; type: cell-based; conditions: organotypic cortical brain slice cultures from adult mice, 48 h, 5 nM, 50 nM, 500 nM, 5 μM; significant dose-dependence; FIG. 1B
# Procedure: as §1
# IL-33 = experiment: Pro-inflammatory cytokine IL-33 in organotypic cortical slice cultures; type: cell-based, mice; conditions: 48 h, 50 nM, 500 nM, 5 μM, FIG. 2B
# Procedure: as §4
structure (smiles),measurement,setting,value
O=S(=O)(O)c1ccc2cc(/N=N/c3cc(S(=O)(=O)O)c4cccnc4c3O)ccc2c1 [Compound B],"expression of matrix remodeling genes (mmp12, mmp2, mmp16, mmp14)","[1]; organotypic cortical brain slice cultures from adult mice, 48 h, 2 μM and 20 μM, FIG. 3B",reductions
same,"expression of cytokine genes (egfr, i16ra, csf1r, illr1, plekho2)","cytokine genes; organotypic cortical brain slice cultures from adult mice, 48 h, 2 μM and 20 μM, FIG. 3A",reductions
same,"expression of astrocyte marker genes (egfr, AI464131, Itga7, Gdpd2, Sox9, Aldh1l1, Entpd2)","astrocyte marker genes; organotypic cortical brain slice cultures from adult mice, 48 h, 2 μM and 20 μM, FIG. 4A",reductions
same,"expression of neuronal marker genes (tbr1, Dlx1, Slc17a6, Islr2)","neuronal marker genes; organotypic cortical brain slice cultures from adult mice, 48 h, 2 μM and 20 μM, FIG. 4B",increases
Cc1nc(N2CCC3(CC2)CO[C@@H](C)[C@H]3N)c(CO)nc1-c1cccc(Cl)c1Cl [Compound A],"expression of matrix remodeling genes (mmp9, mmp16, mmp12)","[1]; organotypic cortical brain slice cultures from adult mice, 48 h, 5 nM, 50 nM, 500 nM, 5 μM, significant dose-dependence, FIG. 1A",reductions
same,total MMP12 protein,MMP12 protein,reductions
same,"expression of cytokine genes (cx3cl1, tgfbr2, i14ra, tgfb1, tnfrsf10b, csf1r, egfr, fit1, flt4, ccl12)","cytokine genes; organotypic cortical slice cultures, 48 h, 5 nM, 50 nM, 500 nM, 5 μM, FIG. 2A",reductions
same,expression of pro-inflammatory cytokines like IL-33,IL-33,reductions
CC1(N)CCN(c2cnc3c(-c4cccc(Cl)c4Cl)n[nH]c3n2)CC1 [Compound C],"expression of matrix remodeling genes (mmp12, mmp16)","[1]; organotypic brain cultures from adult mice, 72 h, 0.1 μM, 0.3 μM, 10 μM, FIG. 5B",reductions
same,"expression of cytokine genes (egfr, i16ra, csf1r, plekho2)","cytokine genes; organotypic brain cultures from adult mice, 72 h, 0.1 μM, 0.3 μM, 10 μM, FIG. 5A",reductions
same,"expression of astrocyte genes (egfr, ai464131, gdpd2, adh1l1)","astrocyte marker genes; organotypic brain cultures from adult mice, 72 h, 0.1 μM, 0.3 μM, 10 μM, FIG. 5C",reductions
same,"expression of neuronal marker genes (tbr1, dlx1, slc17a6, islr2)","neuronal marker genes; organotypic brain cultures from adult mice, 72 h, 0.1 μM, 0.3 μM, 10 μM, FIG. 5D",increases
